According to patent US20020123056A1 (priority 2000, published 2002):

Legend:
SGK2 [1] = type: biochemical, human
SGK2 [2] = target: T1, SGK2 (Homo sapiens, UniProt Q9HBY8); type: biochemical
T1 sequence (Q9HBY8 whole entry, looked up): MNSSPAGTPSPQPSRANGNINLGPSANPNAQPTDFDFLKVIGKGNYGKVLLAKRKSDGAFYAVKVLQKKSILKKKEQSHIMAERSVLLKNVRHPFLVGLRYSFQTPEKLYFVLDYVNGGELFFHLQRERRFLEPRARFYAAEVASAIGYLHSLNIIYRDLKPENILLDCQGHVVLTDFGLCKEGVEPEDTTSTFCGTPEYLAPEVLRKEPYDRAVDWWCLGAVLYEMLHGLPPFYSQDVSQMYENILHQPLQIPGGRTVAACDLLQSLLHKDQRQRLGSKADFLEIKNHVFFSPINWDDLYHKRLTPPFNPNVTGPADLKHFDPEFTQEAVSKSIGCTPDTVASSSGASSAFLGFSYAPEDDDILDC

COC[C@@H]([C@H](O)[C@H](O)C(=O)NCC[C@H](C)c1nc(/C=C/C[C@@H]2O[C@]3(C[C@@H](O)[C@@H]2C)O[C@H]([C@H](C[C@H](O)[C@H](C)[C@H](O)[C@H](C)/C=C(C)/C(C)=C/C=C/C(C)=C\C#N)OC)[C@H](OP(=O)(O)O)C3(C)C)co1)N(C)C [Calyculin A]
effect on SGK2 kinase activity (SGK2 [1]): stimulated SGK2 kinase activity

C=C1[C@@H](O)[C@@H]2O[C@]3(CC[C@H](/C=C/[C@@H](C)[C@@H]4CC(C)=C[C@@]5(O[C@H](C[C@@](C)(O)C(=O)O)CC[C@H]5O)O4)O3)CC[C@H]2O[C@@H]1[C@@H](O)C[C@H](C)[C@H]1O[C@@]2(CCCCO2)CC[C@H]1C [Okadaic Acid]
effect on SGK2 kinase activity (SGK2 [1]): stimulated SGK2 kinase activity

CKRPRAASFAE [PKB-sub]
incorporation of 32P into peptide substrate (SGK2 [2]): significant incorporation

KTFCGTPEYLAPEVRREPRILSEEEQEMFRDFDYI [PDK1 peptide]
incorporation of 32P into peptide substrate (SGK2 [2]): no significant incorporation
